Patent publication US5952324A, “Bicyclic oxazine and thiazine oxazolidinone antibacterials” (Pharmacia & Upjohn Company, priority 1997, dated 1999)

System: S. aureus UC ® 9213
Assay: In vivo murine assay, ED50 against S. aureus UC 9213 infection (survival, female mice)
Settings: Staphylococcus aureus, UC9213, 144 h; PO; female mice infected intraperitoneally; dosed one and five hours after infection, six dose levels; survival six days, probit analysis; read-out: ED50 (mg/kg), Example, PO
Protocol: Antimicrobial activity was tested in vivo using a Murine Assay procedure. Groups of female mice were injected intraperitoneally with bacteria which were thawed just prior to use and suspended in brain heart infusion with 4% Brewer's yeast UC9213 (Staphylococcus aureus) or brain hear infusion (Streptococcus species). Antibiotic treatment a six dose levels per drug was administered on hour and five hours after infection by either oral or subcutaneous routes. Survival was observed daily for six days. ED50 values based on mortality ratios were calculated using probit analysis. The subject compounds were compared against a well-known antibacterial (Vancomycin) as a control.
In Vivo Activity Against S. aureus UC ® 9213

Row | SMILES | ED50
1 | CC(=O)NC[C@H]1CN(c2ccc(N3C[C@@H]4C[C@H]3CO4)c(F)c2)C(=O)O1 [Example 1, (S)-N-[[3-[4-[(1S,4S)-2-oxa-5-azabicyclo[2.2.1]heptan-5-yl]-3-fluorophenyl]-2-oxo-5-oxazolikinyl]methyl]acetamide] | 7.7 mg/kg
2 | CC(=O)NC[C@H]1CN(c2ccc(N3C[C@@H]4C[C@H]3CS4)c(F)c2)C(=O)O1 [Example 2, (S)-N-[[3-[3-fluoro-4-[(1S,4S)-2-thia-5-azabicyclo[2.2.1]heptan-5-yl]-phenyl]-2-oxo-5-oxazolidinyl]methyl]acetamide] | 4.2 mg/kg
3 | CC(=O)NC[C@H]1CN(c2ccc(N3C[C@H]4CSC[C@H]4C3)c(F)c2)C(=O)O1 [Example 4, (S)-N-[[3-[3-fluoro-4-(tetrahydro-1H-thieno[3,4-c]pyrrol-5(3H)-yl)phenyl]-2-oxo-5-oxazolidinyl]methyl]acetamide] | 4.3 mg/kg
4 | CC(=O)NC[C@H]1CN(c2ccc(N3C[C@@H]4C[S+]([O-])C[C@@H]4C3)c(F)c2)C(=O)O1 (stereo partly drawn) [Example 5, (S)-N-[[3-[3-fluoro-4-(tetrahydro-1H-thieno[3,4-c]pyrrol-5(3H)-yl)phenyl]-2-oxo-5-oxazolidinyl]methyl]acetamide, S-oxide] | 10 mg/kg
5 | CC(=O)NC[C@H]1CN(c2ccc(N3C[C@@H]4CS(=O)(=O)C[C@@H]4C3)c(F)c2)C(=O)O1 [Example 6, (S)-N-[[3-[3-fluoro-4-(tetrahydro-1H-thieno[3,4-c]pyrrol-5(3H)-yl)phenyl]-2-oxo-5-oxazolidinyl]methyl]acetamide, S,S-dioxide] | 3.5 mg/kg
